One data set has as its target T1, human KDR enzyme (Homo sapiens, UniProt P35968).
T1 construct: The cytoplasmic domain of the human KDR enzyme was cloned in the form of a GST fusion; GST; made in house; host or cells: SF21 insect cells (baculovirus)
Kind of data set: KDR substrate phosphorylation inhibition, scintillation technique. The class given is biochemical. Conditions: GST-KDR cytoplasmic domain, PLCγ substrate, 1 hour at 37° C.; read-out: KDR IC 50. As to the method:
The inhibitory effect of the compounds is determined in an in vitro test of phosphorylation of substrate with the enzyme KDR via a scintillation technique (96-well plate, NEN).
The cytoplasmic domain of the human KDR enzyme was cloned in the form of a GST fusion in the pFastBac baculovirus expression vector. The protein was expressed in the SF21 cells and purified to about 60% homogeneity.
The KDR kinase activity is measured in 20 mM MOPS, 10 mM MgCl2, 10 mM MnCl2, 1 mM DTT, 2.5 mM EGTA, 10 mM b-glycerophosphate, pH=7.2, in the presence of 10 mM MgCl2, 100 μm Na3VO4, 1 mM NaF. 10 μl of the compound are added to 70 μL of kinase buffer containing 100 ng of KDR enzyme at 4° C. The reaction is initiated by adding 20 μL of solution containing 2 μg of substrate (SH2-SH3 fragment of PLCγ expressed in the form of a GST fusion protein), 2 μCi of γ^33P[ATP] and 2 μm of cold ATP. After incubation for 1 hour at 37° C., the reaction is stopped by adding 1 volume (100 μl) of 200 mM EDTA. The incubation buffer is removed, and the wells are washed three times with 300 μL of PBS. The radioactivity in each well is measured using a Top Count NXT radioactivity counter (Packard).
The background is determined by measuring the radioactivity in four different wells containing radioactive ATP and the substrate alone.
A total activity control is measured in four different wells containing all the reagents (γ^33P-[ATP], KDR and substrate PLCγ), but in the absence of compound.
The inhibition of the KDR activity with the compound of the invention is expressed as a percentage of inhibition of the control activity determined in the absence of compound.
Compound SU5614 (Calbiochem) (1 μm) is included in each plate as an inhibition control.

The target of a further data set is T2, human Tie2 (Homo sapiens, UniProt Q02763).
T2 construct: amino acids of the intracellular domain 776-1124; made in house; host or cells: baculovirus expression system (pFastBacGT)
Kind of data set: Tie2 phosphorylation of PLC inhibition, FlashPlate radioactivity. Conditions: GST-Tie2, GST-PLC substrate, one hour at 37° C.; read-out: TIE2 IC 50. The class given is biochemical. As for the experimental part:
The coding sequence of human Tie2 corresponding to the amino acids of the intracellular domain 776-1124 was generated by PCR using the cDNA isolated from a human placenta as a model. This sequence was introduced into a pFastBacGT baculovirus expression vector in the form of a GST fusion protein.
The inhibitory effect of the molecules is determined in a test of phosphorylation of PLC with Tie2 in the presence of GST-Tie2 purified to about 80% homogeneity. The substrate is composed of the SH2-SH3 fragments of PLC expressed in the form of a GST fusion protein.
The kinase activity of Tie2 is measured in a MOPS 20 mM pH 7.2 buffer, containing 10 mM MgCl2, 10 mM MnCl2, 1 mM DTT, 10 mM of glycerophosphate. In a 96-well FlashPlate plate maintained on ice, a reaction mixture is deposited, composed of 70 μL of kinase buffer containing 100 ng of enzyme GST-Tie2 per well. Next, 10 μL of the test molecule diluted in DMSO to a maximum concentration of 10% are added. For a given concentration, each measurement is performed four times. The reaction is initiated by adding 20 μL of solution containing 2 μg of GST-PLC, 2 μm of cold ATP and 1 μCi of ^33P[ATP]. After incubation for one hour at 37° C., the reaction is stopped by adding 1 volume (100 μl) of EDTA 200 mM. After removal of the incubation buffer, the wells are washed three times with 300 μL of PBS. The radioactivity is measured on a MicroBeta1450 Wallac.
The inhibition of the Tie2 activity is calculated and expressed as a percentage of inhibition relative to the control activity determined in the absence of compound.

For another data set, the target named is T3, human FAK (Homo sapiens, UniProt Q05397).
T3 construct: The whole cDNA of human FAK, the N-terminal end of which has been labelled with histidine; made in house; host or cells: baculovirus expression system (pFastBac HTc)
The data set is described as follows: FAK autophosphorylation inhibition, time-resolved fluorescence test (HTRF). Conditions: autophosphorylation of the enzyme, 15 μM ATP, 1 hour at 37° C.; read-out: FAK IC 50. The class given is biochemical. As to the method:
The inhibitory activity of the compounds on FAK is determined by measuring the inhibition of autophosphorylation of the enzyme using a time-resolved fluorescence test (HTRF).
The whole cDNA of human FAK, the N-terminal end of which has been labelled with histidine, was cloned in a pFastBac HTc baculovirus expression vector. The protein was expressed and purified to about 70% homogeneity.
The kinase activity is determined by incubating the enzyme (6.6 μg/mL) with different concentrations of test compound in a 50 mM Hepes pH=7.2, 10 mM MgCl2, 100 μm Na3VO4, 15 μM ATP buffer for 1 hour at 37° C. The enzymatic reaction is stopped by adding Hepes pH=7.0 buffer containing 0.4 mM KF, 133 mM EDTA, 0.1% BSA and the labelling is performed, for 1 to 2 hours at room temperature, by adding to this buffer an anti-Histidine antibody labelled with XL665 and a tyrosine phosphospecific monoclonal antibody conjugated to europium cryptate (Eu-K). […] The long-lasting signal specific for XL-665 is measured in a Packard Discovery plate counter. All the tests are performed in duplicate and the average of the two tests is calculated. The inhibition of the autophosphorylation activity of FAK with compounds of the invention is expressed as a percentage of inhibition relative to a control whose activity is measured in the absence of test compound. […]
On the technique in general: In TR-FRET formats the signal depends on donor and acceptor labels being close together.

From US7560571B2, “Substituted pyrroles and imidazoles, compositions containing same, manufacturing process therefor and use thereof” (Aventis Pharma S.A., priority 2005, dated 2009) come the findings set out here.

SMILES strings stand for the structures.

T2 sequence (Q02763 776-1124): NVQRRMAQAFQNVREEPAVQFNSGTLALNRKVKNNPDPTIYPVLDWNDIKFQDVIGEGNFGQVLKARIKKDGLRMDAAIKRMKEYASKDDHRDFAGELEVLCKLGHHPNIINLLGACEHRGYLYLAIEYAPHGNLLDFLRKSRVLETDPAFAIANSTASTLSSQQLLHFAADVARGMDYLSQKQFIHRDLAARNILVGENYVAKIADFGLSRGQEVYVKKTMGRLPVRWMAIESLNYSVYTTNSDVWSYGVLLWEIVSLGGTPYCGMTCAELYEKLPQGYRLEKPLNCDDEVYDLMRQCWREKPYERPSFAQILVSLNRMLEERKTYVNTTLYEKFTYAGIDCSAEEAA
T1 sequence (P35968 786-1356 limits assumed): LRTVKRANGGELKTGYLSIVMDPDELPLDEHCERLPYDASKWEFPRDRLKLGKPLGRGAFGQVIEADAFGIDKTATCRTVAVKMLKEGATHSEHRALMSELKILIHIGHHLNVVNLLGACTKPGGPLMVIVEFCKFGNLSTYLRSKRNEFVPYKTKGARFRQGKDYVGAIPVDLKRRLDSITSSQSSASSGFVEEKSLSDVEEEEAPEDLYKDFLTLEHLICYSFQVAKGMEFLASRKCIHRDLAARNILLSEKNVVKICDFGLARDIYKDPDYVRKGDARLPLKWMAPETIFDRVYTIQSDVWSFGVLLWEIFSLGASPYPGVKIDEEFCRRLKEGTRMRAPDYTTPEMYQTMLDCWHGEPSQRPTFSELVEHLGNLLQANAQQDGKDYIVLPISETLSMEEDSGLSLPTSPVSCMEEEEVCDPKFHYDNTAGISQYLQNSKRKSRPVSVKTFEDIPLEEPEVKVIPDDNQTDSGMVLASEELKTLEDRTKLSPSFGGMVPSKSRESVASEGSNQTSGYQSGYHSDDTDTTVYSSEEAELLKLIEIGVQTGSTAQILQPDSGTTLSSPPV
T3 sequence (Q05397 whole entry): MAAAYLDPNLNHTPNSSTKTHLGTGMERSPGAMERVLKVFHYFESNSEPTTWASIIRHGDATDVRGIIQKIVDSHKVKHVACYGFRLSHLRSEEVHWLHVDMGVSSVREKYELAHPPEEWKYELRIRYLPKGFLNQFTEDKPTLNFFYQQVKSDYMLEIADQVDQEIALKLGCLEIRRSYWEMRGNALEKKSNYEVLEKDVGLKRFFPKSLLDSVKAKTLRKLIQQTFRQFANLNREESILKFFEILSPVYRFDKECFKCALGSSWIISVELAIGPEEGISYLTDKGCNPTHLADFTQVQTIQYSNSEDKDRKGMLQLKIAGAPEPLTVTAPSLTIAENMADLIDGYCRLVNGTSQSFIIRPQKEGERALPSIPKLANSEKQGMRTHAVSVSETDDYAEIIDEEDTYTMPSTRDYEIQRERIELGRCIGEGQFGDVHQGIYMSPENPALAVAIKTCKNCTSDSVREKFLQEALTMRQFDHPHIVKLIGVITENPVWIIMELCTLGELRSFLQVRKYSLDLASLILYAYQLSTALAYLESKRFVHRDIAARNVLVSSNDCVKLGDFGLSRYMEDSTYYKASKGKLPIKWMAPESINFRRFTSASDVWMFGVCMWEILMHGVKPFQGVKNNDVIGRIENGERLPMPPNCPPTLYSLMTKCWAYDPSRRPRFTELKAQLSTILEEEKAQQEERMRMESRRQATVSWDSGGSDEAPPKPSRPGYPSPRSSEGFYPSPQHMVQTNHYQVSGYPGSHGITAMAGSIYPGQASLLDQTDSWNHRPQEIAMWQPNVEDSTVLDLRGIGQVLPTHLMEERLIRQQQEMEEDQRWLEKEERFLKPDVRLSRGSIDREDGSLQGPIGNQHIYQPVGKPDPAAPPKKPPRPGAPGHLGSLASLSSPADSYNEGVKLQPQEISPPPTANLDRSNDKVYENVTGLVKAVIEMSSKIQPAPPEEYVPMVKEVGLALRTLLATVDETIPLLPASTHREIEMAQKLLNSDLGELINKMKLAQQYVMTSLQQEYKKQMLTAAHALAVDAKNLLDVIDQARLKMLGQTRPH

What is called melting point is the temperature, or range, at which the solid turns liquid. `NC(=O)c1c[nH]c(C(N)=O)c1-c1ccc(NC(=O)Nc2cc(C(F)(F)F)ccc2F)cc1` [Example 40, 3-{4-[3-(2-Fluoro-5-trifluoromethylphenyl)ureido]phenyl}-1H-pyrrole-2,4-dicarboxamide] showed a melting point of 196 °C. As for `NC(=O)c1[nH]cc(Cl)c1-c1ccc(NC(=O)Nc2cc(C(F)(F)F)ccc2F)cc1` [Example 44, 4-Chloro-3-{4-[3-(2-fluoro-5-trifluoromethylphenyl)ureido]phenyl}-1H-pyrrole-2-carboxamide], the IC50 at human KDR enzyme was found to be 27 nM; on human Tie2, 7 nM. Regarding `NC(=O)c1[nH]cc(NC(=O)c2ccccc2)c1-c1ccc(NC(=O)Nc2cc(C(F)(F)F)ccc2F)cc1` [Example 7, 4-Benzoylamino-3-{4-[3-(2-fluoro-5-trifluoromethylphenyl)ureido]phenyl}-1H-pyrrole-2-carboxamide], the melting point turned out to be 239.7 °C.

Regarding `CCOC(=O)c1c[nH]c(C(N)=O)c1-c1ccc(NC(=O)Nc2cc(C(F)(F)F)ccc2F)cc1` [Example 9, Ethyl 5-carbamoyl-4-{4-[3-(2-fluoro-5-trifluoromethylphenyl)ureido]phenyl}-1H-pyrrole-3-carboxylate], the melting point was determined as 179 °C. In addition, the IC50 at human KDR enzyme amounted to 23 nM. Also, the IC50 at human Tie2 was found to be 4 nM. Compound `NC(=O)c1[nH]cc(C(=O)O)c1-c1ccc(NC(=O)Nc2cc(C(F)(F)F)ccc2F)cc1` [Example 38, 5-Carbamoyl-4-{4-[3-(2-fluoro-5-trifluoromethylphenyl)ureido]phenyl}-1H-pyrrole-3-carboxylic acid] returned a melting point of 194 °C. Consider `CC(=O)Nc1c[nH]c(C(N)=O)c1-c1ccc(NC(=O)Nc2cc(C(F)(F)F)ccc2F)cc1` [Example 5, 4-Acetylamino-3-{4-[3-(2-fluoro-5-trifluoromethylphenyl)ureido]phenyl}-1H-pyrrole-2-carboxamide], for which the melting point was 228.5 °C. On to `NC(=O)c1[nH]cc(NC(=O)Nc2cc(C(F)(F)F)ccc2F)c1-c1ccc(NC(=O)Nc2cc(C(F)(F)F)ccc2F)cc1` [Example 4, 4-[3-(2-Fluoro-5-trifluoromethylphenyl)ureido]-3-{4-[3-(2-fluoro-5-trifluoro-methylphenyl)ureido]phenyl}-1H-pyrrole-2-carboxamide], for which the IC50 on human KDR enzyme is 352 nM; at human Tie2 it was 111 nM. Turning to `NC(=O)c1[nH]ccc1-c1ccc(NC(=O)Nc2cc(C(F)(F)F)ccc2F)cc1` [Example 1, 3-{4-[3-(2-Fluoro-5-trifluoromethylphenyl)ureido]phenyl}-1H-pyrrole-2-carboxamide], the IC50 turned out to be 115 nM on human KDR enzyme, 2380 nM on human FAK and 13 nM at human Tie2. `Cl.NC(=O)c1[nH]cc(N)c1-c1ccc(NC(=O)Nc2cc(C(F)(F)F)ccc2F)cc1`: the melting point is ~ 174 °C. Same read-out and setting: as for `CN(C)CC(=O)Nc1c[nH]c(C(N)=O)c1-c1ccc(NC(=O)Nc2cc(C(F)(F)F)ccc2F)cc1` [Example 6, 4-(2-Dimethylaminoacetylamino)-3-{4-[3-(2-fluoro-5-trifluoromethylphenyl)-ureido]phenyl}-1H-pyrrole-2-carboxamide], the figure is 178 °C; as for `NC(=O)c1[nH]cnc1-c1ccc(NC(=O)Nc2cc(C(F)(F)F)ccc2F)cc1` [Example 46, 5-{4-[3-(2-Fluoro-5-trifluoromethylphenyl)ureido]phenyl}-3H-imidazole-4-carboxamide], 325 °C.
